Results taken from publication PMC6359144 (International Journal of Molecular Sciences, 2019).
Like-named read-outs stand apart in the source and are kept apart here.

Key:
[1] = system: HT-29 colon carcinoma cells; assay: MTT assay, HT-29 colon carcinoma cells; type: cell-based, human; details: Homo sapiens, MTT
Protocol: (§1) HT-29 (ACC-299), HCT-116 (ACC-581) and DLD-1 (ACC-278) colon carcinoma, MCF-7 (ACC-115) breast carcinoma, KB-V1 (ACC-149), 518A2 (Department of Radiotherapy and Radiobiology, University Hospital Vienna) melanoma and Ea.Hy926 (ATCC no. CRL-2922) HUVEC derived endothelial hybrid cells line were grown in Dulbecco’s Modified Eagle Medium (DMEM; Biochrom), high glucose supplemented with 10% (v/v) fetal bovine serum (FBS; Biochrom.) and 1% (v/v) Antibiotic-Antimycotic solution (anti-anti; Thermo Scientific). HDFa human dermal fibroblasts (ATCC: PCS-201-012™) were grown in DMEM supplemented with 10% FBS, 1% anti-anti and 2 mM glutamine. The cells were incubated at 37 °C, 5% CO2, 95% humidified atmosphere. By repeated addition of topotecan or vinblastine at the maximum tolerated dose to the cell medium of MCF-7 and KB-V1 cells, the cells were rendered multidrug-resistant, indicated as MCF-7^Topo and KB-V1^Vbl, respectively. They were serially passaged following trypsinization by using 0.05% trypsin/0.02% EDTA (Biochrom). Mycoplasma contamination was routinely monitored, and only mycoplasma–free cultures were used.
(§2) MTT [3-(4,5-dimethylthiazol-2-yl)-2,5-diphenyltetrazolium bromide] (ABCR) was used to determine the cytotoxicity of test compounds as previously described. Briefly, HDFa human dermal fibroblasts and Ea.Hy926 endothelial hybrid cells (both 1 × 10^5 cells/mL, 100 µL/well), 518A2 melanoma, KB-V1^Vbl cervix carcinoma, MCF-7^Topo breast carcinoma, HT-29, DLD-1 and HCT-116 colon carcinoma (all 5 × 10^4 cells/mL, 100 µL/well) were grown in 96-well culture plates for 24 h. Then, various concentrations of the test compounds were added and the cells were incubated for 24-72 h at 37 °C. After adding 12.5 µL of a 0.5% MTT solution in PBS (final concentration 0.05%) to cell medium, microplates were incubated for 2 h and subsequently swiftly turned to discard the medium. The precipitate of formazan crystals was then dissolved in a 10% solution of SDS in DMSO containing 0.6% acetic acid. To ensure complete dissolution of formazan, microplates were incubated for at least 4 h at 37 °C. Finally, the absorbance at λ = 570 nm (formazan) and 630 nm (background) was measured using a microplate reader (Tecan F200). All experiments were carried out in quadruplicate and the percentage of viable cells was calculated as the mean ± SD with controls set to 100%. Selected graphs of MTT assays can be found in the Supporting Information (Figure S8).

[2] = system: DLD-1 colon carcinoma cells; assay: MTT assay, DLD-1 colon carcinoma cells; type: cell-based; details: Homo sapiens, DLD-1, read-out: IC50 DLD-1 (72 h)
Protocol: as §1, §2

[3] = system: HCT-116 colon carcinoma cells; assay: MTT assay, HCT-116 colon carcinoma cells; type: cell-based; details: Homo sapiens, HCT-116, read-out: IC50 HCT-116 (72 h)
Protocol: as §1, §2

[4] = system: MCF-7^Topo breast adenocarcinoma cells; assay: MTT assay, MCF-7^Topo breast carcinoma cells; type: cell-based; details: Homo sapiens, MCF7/Topo, read-out: IC50 MCF-7^Topo (72 h)
Protocol: as §1, §2

[5] = system: non-malignant HDFa dermal fibroblasts; assay: MTT assay, HDFa dermal fibroblasts; type: cell-based; details: Homo sapiens, read-out: IC50 HDFa (72 h)
Protocol: as §1
MTT [3-(4,5-dimethylthiazol-2-yl)-2,5-diphenyltetrazolium bromide] (ABCR) was used to determine the cytotoxicity of test compounds as previously described. Briefly, HDFa human dermal fibroblasts and Ea.Hy926 endothelial hybrid cells (both 1 × 10^5 cells/mL, 100 µL/well), 518A2 melanoma, KB-V1^Vbl cervix carcinoma, MCF-7^Topo breast carcinoma, HT-29, DLD-1 and HCT-116 colon carcinoma (all 5 × 10^4 cells/mL, 100 µL/well) were grown in 96-well culture plates for 24 h. Then, various concentrations of the test compounds were added and the cells were incubated for 24-72 h at 37 °C. […] Finally, the absorbance at λ = 570 nm (formazan) and 630 nm (background) was measured using a microplate reader (Tecan F200). All experiments were carried out in quadruplicate and the percentage of viable cells was calculated as the mean ± SD with controls set to 100%. […]

[6] = system: microtubule cytoskeleton in 518A2 melanoma cells; assay: Immunofluorescence staining of microtubule cytoskeleton, 518A2 cells; type: cell-based, human; details: 24 h
Protocol: 518A2 melanoma cells (5 × 10^4 cells/mL, 500 µL/well) or Ea.Hy926 endothelial hybrid cells (7.5 × 10^4 cells/mL, 500 µL/well) were seeded in 24-well plates on small glass coverslips and grown for 24 h. Then, the cells were exposed to the test compounds for 24 h. After washing the cells once with PBS, they were fixed in 3.7% formaldehyde in PBS (20 min, rt), and permeabilized and blocked in 1% BSA and 0.1% triton X-100 in PBS (30 min, rt). Then, the cells were incubated with monoclonal mouse anti-alpha-tubulin antibody (1 h, 37 °C). […] Then, the cells were washed for three times with PBS and once with water. The glass coverslips were mounted in 4-88 based mounting medium supplemented with 1 µg/mL DAPI for counterstaining the nuclei and 2.5% DABCO. Alterations of the microtubule were documented by a Zeiss Imager A1 AX10 fluorescence microscope (400× magnification).

518A2 melanoma cells = assay: DCFH-DA assay of intracellular ROS; type: cell-based, human; details: 10 µM, 1 h, vehicle treated controls set to 100%
Text: Gosch 2,3, Alexandra […] Rothemund 1, Thomas Mueller 4, […] Schobert 1, Bernhard Biersack 1,*, Andrea Volkamer 3 and Michael […] 2,* 1 Department of Chemistry, University of […], Germany; florian1.schmitt@uni-[…].rothemund@uni -[…].schobert@uni - bayreuth.de (R.S.) 2 Institute of Physiology, Charité-Universitätsmedizin Berlin, Charitéplatz 1, 10117 Berlin, Germany; […].), alexandra.[…].) 3 In Silico Toxicology Group, Institute of Physiology, Charité-Universitätsmedizin Berlin, Charitéplatz 1, 10117 Berlin, Germany; […] 4 Internal Medicine IV, University Hospital […], Germany; thomas.mueller@medizin.uni-[…] * Correspondence: bernhard.biersack@yahoo.com (B.B.); michael.hoepfner@charite.de (M.H.); Tel.: +49-921- 55- 2673 (B.B.); Tel: +49-030-450-528 -515(M.H.); Table of content Material and Methods ... S1 DCFH-DA assay. ... S1 Immuofluorescence staining of acetylated alpha-tubulin ... S2 Wound healing assay ... S2 Results ... S3 Effect on the microtubule cytoskeleton ... S3 Effect on the intracellular ROS levels ... S3 Effect on the acetylation of alpha-tubulin ... S3 Effect on migratory activity ... S5 Effect on mouse weight ... S6 Graphs of MTT assays ... S7 S1 Material and Methods DCFH-DA assay. The assay was performed as previously described. […] 100 μL/well) were grown in a black 96-well plate for 24 h. Then, the cell medium was exchanged for […] After […] and vehicle (DMSO) in serum-free DMEM for 1 h at 37 °C. Then, the cells were washed twice with 100 μL PBS and subsequently placed in a microplate reader (TECAN). The DCF-fluorescence (λex = 485 nm, λem = 535 nm) as a measure of ROS production was determined and that of vehicle treated controls set to 100%. Values exceeding 100% indicate a drug-induced ROS generation. The values of six independent assays were depicted as the means ± SD. There were no outliers and the data fulfilled variance homogeneity (Levene's test, p > 0.05).

[7] = HT-29, read-out: IC50 HT-29 (72 h), 72 h
[8] = HT-29, 24 h, read-out: IC50 HT-29 (24 h)

SMILES: COc1ccc(-c2ocnc2-c2cc(Br)c(OC)c(OC)c2)cc1OCCCC(=O)NO [4d, N-Hydroxy-4-[1-methoxy-4-(4’-(3’’-bromo-4’’,5’’-dimethoxyphenyl)oxazol-5’-yl)-2-phenoxy]butanamide]
- IC50 [1, 7]: 1400 ± 200 nM
- IC50 [1, 8]: 1300 ± 300 nM
- IC50 [2]: 290 ± 20 nM
- IC50 [3]: 130 ± 10 nM
- IC50 [4]: 2800 ± 300 nM
- IC50 [5]: 23900 ± 1600 nM
- effect on microtubule cytoskeleton ([6]; 0.5 µM): complete disruption of the microtubule cytoskeleton
- intracellular ROS level (518A2 melanoma cells): 241% ± 17

SMILES: COc1ccc(-c2ocnc2-c2cc(Br)c(OC)c(OC)c2)cc1OCCCCC(=O)NO [4e, N-Hydroxy-5-[1-methoxy-4-(4’-(3’’-bromo-4’’,5’’-dimethoxyphenyl)oxazol-5’-yl)-2-phenoxy]pentanamide]
- IC50 [1, 7]: 1900 ± 200 nM
- IC50 [1, 8]: 2100 ± 600 nM
- IC50 [2]: 2100 ± 400 nM
- IC50 [3]: 2200 ± 300 nM
- IC50 [4]: 3400 ± 200 nM
- IC50 [5]: > 100000 nM
- effect on microtubule cytoskeleton ([6]; […]): eroded the highly organized microtubule network, but left some intact clusters
- intracellular ROS level (518A2 melanoma cells): 230 ± 31%

SMILES: COc1ccc(-c2ocnc2-c2cc(Br)c(OC)c(OC)c2)cc1OCCCCCC(=O)NO [4f, N-Hydroxy-6-[1-methoxy-4-(4’-(3’’-bromo-4’’,5’’-dimethoxyphenyl)oxazol-5’-yl)-2-phenoxy]hexanamide]
- IC50 [1, 7]: 14200 ± 1600 nM
- IC50 [1, 8]: 6600 ± 600 nM
- IC50 [2]: 4100 ± 300 nM
- IC50 [3]: 6300 ± 400 nM
- IC50 [4]: 8300 ± 700 nM
- IC50 [5]: > 50000 nM
- effect on microtubule cytoskeleton ([6]; 4 µM): did not affect the microtubule cytoskeleton
- intracellular ROS level (518A2 melanoma cells): 198 ± 24%
